PubChem BioAssay AID224 (DTP/NCI, 2004)
Where “and” joins values, the source holds several entries; their conditions need not be identical. Identical values can stand only once. Inconclusive results and toxic doses are left out.

System: P335 leukemia ip, BDF1 mice, survival T/C %
Test: NCI In Vivo Anticancer Drug Screen. Data for tumor model P335 Leukemia (intraperitoneal) in B6D2F1 (BDF1) mice
Details: endpoint: mean survival time, higher = longer survival
Experimental: The antitumor activity of compounds was measured in mice bearing transplantable tumors. Survival or tumor size were measured and the results are expressed as the measurement made in the treated group (T) divided by the measurement made in the vehicle treated control group (C). The tumor model used in this assay is P335 Leukemia (intraperitoneal) in B6D2F1 (BDF1) mice

[1] = dose: 9.4 mg/kg/injection, schedule: Q01DX Z (ip), vehicle: carboxymethylcellulose (CMC)
[2] = dose: 18.75 mg/kg/injection, schedule: Q01DX Z (ip), vehicle: carboxymethylcellulose (CMC)
[3] = dose: 37.5 mg/kg/injection, schedule: Q01DX Z (ip), vehicle: carboxymethylcellulose (CMC)
[4] = dose: 75.0 mg/kg/injection, schedule: Q01DX Z (ip), vehicle: carboxymethylcellulose (CMC)
[5] = dose: 150.0 mg/kg/injection, schedule: Q01DX Z (ip), vehicle: carboxymethylcellulose (CMC)
[6] = dose: 300.0 mg/kg/injection, schedule: Q01DX Z (ip), vehicle: carboxymethylcellulose (CMC)
[7] = dose: 12.5 mg/kg/injection, schedule: Q01DX Z (ip), vehicle: carboxymethylcellulose (CMC)
[8] = dose: 25.0 mg/kg/injection, schedule: Q01DX Z (ip), vehicle: carboxymethylcellulose (CMC)
[9] = dose: 50.0 mg/kg/injection, schedule: Q01DX Z (ip), vehicle: carboxymethylcellulose (CMC)
[10] = dose: 100.0 mg/kg/injection, schedule: Q01DX Z (ip), vehicle: carboxymethylcellulose (CMC)
[11] = dose: 6.25 mg/kg/injection, schedule: Q01DX Z (ip), vehicle: carboxymethylcellulose (CMC)

What does the source list for `O=C1CCC(N2C(=O)c3ccccc3C2=O)C(=O)N1` (stereo not drawn)?
T/C [1]: 92 % of control; T/C [2]: 86 % of control and 97 % of control; T/C [3]: 88 % of control and 90 % of control and 119 % of control; T/C [4]: 100 % of control and 102 % of control; T/C [5]: 88 % of control and 98 % of control; T/C [6]: 86 % of control

How did the T/C (dose: 15.6 mg/kg/injection, schedule: Q01DX Z (ip), vehicle: carboxymethylcellulose (CMC)) turn out when `CCn1cnc2c(=S)nc[nH]c21` was run?
Its T/C is 96 % of control.

Which results are given for `Nc1ncnc2c1ccn2C1OC(CO)C(O)C1O` (stereo not drawn)?
T/C (dose: 0.08 mg/kg/injection, schedule: Q01DX Z (ip), vehicle: carboxymethylcellulose (CMC)): 110 % of control; T/C (dose: 0.16 mg/kg/injection, schedule: Q01DX Z (ip), vehicle: carboxymethylcellulose (CMC)): 97 % of control; T/C (dose: 0.31 mg/kg/injection, schedule: Q01DX Z (ip), vehicle: carboxymethylcellulose (CMC)): 95 % of control; T/C (dose: 0.32 mg/kg/injection, schedule: Q01DX Z (ip), vehicle: carboxymethylcellulose (CMC)): 121 % of control; T/C (dose: 1.25 mg/kg/injection, schedule: Q01DX Z (ip), vehicle: carboxymethylcellulose (CMC)): 93 % of control

Which T/C (dose: 100.0 mg/kg/injection, schedule: Q01DX Z (ip), vehicle: other) does the source give for `Nc1nc2n[nH]nc2c(=O)[nH]1` here?
The T/C was 115 % of control.

Which T/C (dose: 2.35 mg/kg/injection, schedule: Q01DX Z (ip), vehicle: carboxymethylcellulose (CMC)) does the source give for `Nc1nc(SCc2ccccc2)c2[nH]cnc2n1` here?
Its T/C is 87 % of control.

What about the T/C [1] of the same compound?
The T/C was 108 % of control.

And the T/C [2]?
The T/C was 87 % of control.

`CN(C)c1nc(N(C)C)nc(N(C)C)n1` was tested. Which T/C (dose: 31.25 mg/kg/injection, schedule: Q01DX Z (ip), vehicle: carboxymethylcellulose (CMC)) did it give?
Its T/C is 113 % of control.

And the T/C (dose: 62.5 mg/kg/injection, schedule: Q01DX Z (ip), vehicle: carboxymethylcellulose (CMC))?
Its T/C is 111 % of control.

What about the T/C (dose: 125.0 mg/kg/injection, schedule: Q01DX Z (ip), vehicle: carboxymethylcellulose (CMC)) of the same compound?
The T/C was 113 % of control.

What about the T/C (dose: 500.0 mg/kg/injection, schedule: Q01DX Z (ip), vehicle: carboxymethylcellulose (CMC)) of the same compound?
Its T/C is 111 % of control.

What about the T/C (dose: 1000.0 mg/kg/injection, schedule: Q01DX Z (ip), vehicle: carboxymethylcellulose (CMC)) of the same compound?
The T/C was 93 % of control.

For `COc1ccc(/C=N/NC(N)=S)cc1`, which T/C [2] is on record?
The T/C was 115 % of control.

What about the T/C [3] of the same compound?
Its T/C is 108 % of control.

What about the T/C [4] of the same compound?
Its T/C is 106 % of control.

And the T/C [5]?
The T/C was 96 % of control.

What about the T/C [6] of the same compound?
Its T/C is 115 % of control.

And the T/C (dose: 300.0 mg/kg/injection, schedule: Q01DX Z (ip), vehicle: saline)?
The T/C was 94 % of control.

And the T/C (dose: 600.0 mg/kg/injection, schedule: Q01DX Z (ip), vehicle: saline)?
Its T/C is 96 % of control.

What does the source list for `C[C@]12CCC(=O)C=C1CC[C@@H]1[C@@H]2CC[C@@]2(C)[C@H]1CC[C@]2(C)O`?
T/C (dose: 0.5 mg/kg/injection, schedule: Q01DX Z (sc), vehicle: steriod suspending solution): 117 % of control; T/C (dose: 1.0 mg/kg/injection, schedule: Q01DX Z (sc), vehicle: steriod suspending solution): 96 % of control; T/C (dose: 2.0 mg/kg/injection, schedule: Q01DX Z (sc), vehicle: steriod suspending solution): 121 % of control; T/C (dose: 4.0 mg/kg/injection, schedule: Q01DX Z (sc), vehicle: steriod suspending solution): 116 % of control; T/C (dose: 8.0 mg/kg/injection, schedule: Q01DX Z (sc), vehicle: steriod suspending solution): 118 % of control; T/C (dose: 16.0 mg/kg/injection, schedule: Q01DX Z (sc), vehicle: steriod suspending solution): 116 % of control; T/C (dose: 31.0 mg/kg/injection, schedule: Q01DX Z (sc), vehicle: steriod suspending solution): 116 % of control; T/C (dose: 62.5 mg/kg/injection, schedule: Q01DX Z (sc), vehicle: steriod suspending solution): 106 % of control and 111 % of control; T/C (dose: 125.0 mg/kg/injection, schedule: Q01DX Z (sc), vehicle: steriod suspending solution): 106 % of control; T/C (dose: 250.0 mg/kg/injection, schedule: Q01DX Z (sc), vehicle: steriod suspending solution): 109 % of control; T/C (dose: 500.0 mg/kg/injection, schedule: Q01DX Z (sc), vehicle: steriod suspending solution): 100 % of control

Which results are given for `CCCCCCCCCCCCNCCCCCCCCCCCC`?
T/C (dose: 3.75 mg/kg/injection, schedule: Q01DX Z (ip), vehicle: carboxymethylcellulose (CMC)): 91 % of control; T/C (dose: 7.5 mg/kg/injection, schedule: Q01DX Z (ip), vehicle: carboxymethylcellulose (CMC)): 115 % of control; T/C (dose: 15.0 mg/kg/injection, schedule: Q01DX Z (ip), vehicle: carboxymethylcellulose (CMC)): 92 % of control; T/C (dose: 30.0 mg/kg/injection, schedule: Q01DX Z (ip), vehicle: carboxymethylcellulose (CMC)): 88 % of control

For `C[N+](C)(C)c1ncnc2nc[nH]c12`, which T/C [7] is on record?
Its T/C is 107 % of control.

What about the T/C [8] of the same compound?
The T/C was 94 % of control.

What about the T/C [9] of the same compound?
The T/C was 110 % of control.

And the T/C [10]?
Its T/C is 87 % of control and 107 % of control.

For `Nc1ncnc2[nH]ncc12`, which T/C [11] is on record?
Its T/C is 89 % of control.

What about the T/C [7] of the same compound?
Its T/C is 92 % of control.

`O=C(O)CCCc1ccc(N(CCCl)CCCl)cc1` was tested. Which T/C [11] did it give?
The T/C was 89 % of control.

And the T/C [7]?
The T/C was 89 % of control.

Which results are given for `NC(Cc1ccc(N(CCCl)CCCl)cc1)C(=O)O` (stereo not drawn)?
T/C (dose: 2.5 mg/kg/injection, schedule: Q01DX Z (ip), vehicle: carboxymethylcellulose (CMC)): 87 % of control; T/C (dose: 5.0 mg/kg/injection, schedule: Q01DX Z (ip), vehicle: carboxymethylcellulose (CMC)): 94 % of control

Which results are given for `O=C(Nc1ccc(C2=NCCCN2)cc1)c1ccc(NC(=O)c2ccc(C3=NCCCN3)cc2)cc1`?
T/C (dose: 4.0 mg/kg/injection, schedule: Q01DX Z (ip), vehicle: carboxymethylcellulose (CMC)): 168 % of control; T/C (dose: 8.0 mg/kg/injection, schedule: Q01DX Z (ip), vehicle: carboxymethylcellulose (CMC)): 176 % of control; T/C (dose: 16.0 mg/kg/injection, schedule: Q01DX Z (ip), vehicle: carboxymethylcellulose (CMC)): 108 % of control

With `CN(Cc1cnc2nc(N)nc(N)c2n1)c1c(Cl)cc(C(=O)NC(CCC(=O)O)C(=O)O)cc1Cl` (stereo not drawn) as the compound, how does the T/C [8] read?
Its T/C is 104 % of control and 121 % of control.

How did the T/C (dose: 0.24 mg/kg/injection, schedule: Q01DX Z (sc), vehicle: steriod suspending solution) turn out when `Oc1cc(CN(CCCl)CCCl)c(O)cc1CN(CCCl)CCCl` was run?
The T/C was 95 % of control.

And the T/C (dose: 0.47 mg/kg/injection, schedule: Q01DX Z (sc), vehicle: steriod suspending solution)?
The T/C was 109 % of control.

And the T/C (dose: 0.94 mg/kg/injection, schedule: Q01DX Z (sc), vehicle: steriod suspending solution)?
Its T/C is 103 % of control.

And the T/C (dose: 1.87 mg/kg/injection, schedule: Q01DX Z (sc), vehicle: steriod suspending solution)?
The T/C was 104 % of control.

And the T/C (dose: 7.5 mg/kg/injection, schedule: Q01DX Z (sc), vehicle: steriod suspending solution)?
The T/C was 87 % of control.

For `C[C@H](N)C(=O)N[C@@H]1[C@H]2C(=C(O)C[C@@H](O)[C@@H]2O)C(=O)O[C@@H]1C`, which T/C (dose: 23.43 mg/kg/injection, schedule: Q01DX Z (ip), vehicle: saline) is on record?
Its T/C is 114 % of control.

What about the T/C (dose: 187.5 mg/kg/injection, schedule: Q01DX Z (ip), vehicle: saline) of the same compound?
The T/C was 168 % of control.

And the T/C (dose: 375.0 mg/kg/injection, schedule: Q01DX Z (ip), vehicle: saline)?
Its T/C is 151 % of control and 182 % of control.

And the T/C (dose: 750.0 mg/kg/injection, schedule: Q01DX Z (ip), vehicle: saline)?
The T/C was 191 % of control.

How did the T/C (dose: 12.5 mg/kg/injection, schedule: Q01DX Z (sc), vehicle: steriod suspending solution) turn out when `C[C@]12C=CC(=O)C=C1CC[C@@H]1[C@@H]2C(=O)C[C@@]2(C)[C@H]1CC[C@]2(O)C(=O)CO` was run?
The T/C was 101 % of control.

And the T/C (dose: 25.0 mg/kg/injection, schedule: Q01DX Z (sc), vehicle: steriod suspending solution)?
Its T/C is 108 % of control.

And the T/C (dose: 50.0 mg/kg/injection, schedule: Q01DX Z (sc), vehicle: steriod suspending solution)?
Its T/C is 104 % of control.

What about the T/C (dose: 100.0 mg/kg/injection, schedule: Q01DX Z (sc), vehicle: steriod suspending solution) of the same compound?
The T/C was 108 % of control.

Which results are given for `CCN(CC)C(=S)S`?
T/C (dose: 125.0 mg/kg/injection, schedule: Q01DX Z (ip), vehicle: other): 92 % of control; T/C (dose: 250.0 mg/kg/injection, schedule: Q01DX Z (ip), vehicle: other): 105 % of control; T/C (dose: 500.0 mg/kg/injection, schedule: Q01DX Z (ip), vehicle: other): 106 % of control; T/C (dose: 500.0 mg/kg/injection, schedule: Q01DX Z (ip), vehicle: water): 102 % of control; T/C (dose: 1000.0 mg/kg/injection, schedule: Q01DX Z (ip), vehicle: other): 103 % of control; T/C (dose: 1000.0 mg/kg/injection, schedule: Q01DX Z (ip), vehicle: water): 120 % of control

What does the source list for `O=C1C(NC(=O)C2CCCCC2)=C(N2CC2)C(=O)C(NC(=O)C2CCCCC2)=C1N1CC1`?
T/C [5]: 103 % of control; T/C [6]: 101 % of control; T/C (dose: 600.0 mg/kg/injection, schedule: Q01DX Z (ip), vehicle: carboxymethylcellulose (CMC)): 106 % of control

`O=C(Nc1ccc(C2=NCCN2)cc1)c1ccc(C(=O)Nc2ccc(C3=NCCN3)cc2)cc1` was tested. Which T/C [8] did it give?
The T/C was 112 % of control.

And the T/C [9]?
Its T/C is 93 % of control.

What about the T/C [10] of the same compound?
The T/C was 112 % of control.

What about the T/C (dose: 200.0 mg/kg/injection, schedule: Q01DX Z (ip), vehicle: carboxymethylcellulose (CMC)) of the same compound?
Its T/C is 179 % of control.
